The test system of the first assay is σ1 receptor and the μ-opiod receptor. Briefly: μ and σ1 dual binding: combined class from the Ki of both radioligand assays. On the set-up: species or system human; key to μ and σ1 dual binding: +: Both Ki-μ and Ki-σ1>=500 nM; ++: One Ki<500 nM while the other Ki is >=500 nM; +++: Both Ki-μ and Ki-σ1<500 nM; ++++: Both Ki-μ and Ki-σ1<100 nM. The settings on record: combined class for Ki-μ and Ki-σ1; transfected HEK-293 membranes (σ1), transfected CHO-K1 cell membranes (μ). How it is done: To investigate binding properties of σ1 receptor ligands to human σ1 receptor, transfected HEK-293 membranes and [^3H](+)-pentazocine (Perkin Elmer, NET-1056), as the radioligand, were used. The assay was carried out with 7 μg of membrane suspension, 5 nM of [^3H](+)-pentazocine in either absence or presence of either buffer or 10 μM Haloperidol for total and non-specific binding, respectively. Binding buffer contained Tris-HCl 50 mM at pH 8. Plates were incubated at 37° C. for 120 minutes. After the incubation period, the reaction mix was then transferred to MultiScreen HTS, FC plates (Millipore), filtered and plates were washed 3 times with ice-cold 10 mM Tris-HCL (pH7.4). Filters were dried and counted at approximately 40% efficiency in a MicroBeta scintillation counter (Perkin-Elmer) using EcoScint liquid scintillation cocktail
To investigate binding properties of mu-opioid receptor ligands to human μ-opioid receptor, transfected CHO-K1 cell membranes and [^3H]-DAMGO (Perkin Elmer, ES-542-C), as the radioligand, were used. The assay was carried out with 20 μg of membrane suspension, 1 nM of [^3H]-DAMGO in either absence or presence of either buffer or 10 μM Naloxone for total and non-specific binding, respectively. Binding buffer contained Tris-HCl 50 mM, MgCl2 5 mM at pH 7.4. Plates were incubated at 27° C. for 60 minutes. After the incubation period, the reaction mix was then transferred to MultiScreen HTS, FC plates (Millipore), filtered and plates were washed 3 times with ice-cold 10 mM Tris-HCL (pH 7.4). Filters were dried and counted at approximately 40% efficiency in a MicroBeta scintillation counter (Perkin-Elmer) using EcoScint liquid scintillation cocktail.
The following scale as been adopted for representing the binding to the σ1 receptor and the μ-opiod receptor expressed as Ki: • + Both Ki-μ and Ki-σ1>=500 nM • ++ One Ki<500 nM while the other Ki is >=500 nM • +++ Both Ki-μ and Ki-σ1<500 nM • ++++ Both Ki-μ and Ki-σ1<100 nM
Consider `CS(=O)(=O)Nc1cccc(C2CCN(Cc3cn(C4CCC(F)(F)CC4)nn3)CC2)c1` [Example 68, N-(3-(1-((1-(4,4-difluorocyclohexyl)-1H-1,2,3-triazol-4-yl)methyl)piperidin-4-yl)phenyl)methanesulfonamide], for which the “μ and σ1 dual binding” value is “++”.

For the compound `CCC(=O)Nc1cccc(C2CCN(Cc3cn([C@@H]4c5ccccc5C[C@H]4O)nn3)CC2)c1` [Example 69, N-(3-(1-((1-((1R,2R)-2-hydroxy-2,3-dihydro-1H-inden-1-yl)-1H-1,2,3-triazol-4-yl)methyl)piperidin-4-yl)phenyl)propionamide], the “μ and σ1 dual binding” value is recorded as “++”.

On to `CC(=O)Nc1nc2ccc(C3CCN(Cc4cn(-c5ccccc5)nn4)CC3)cc2s1` [Example 74, N-(6-(1-((1-phenyl-1H-1-1,2,3-triazol-4-yl)methyl)piperidin-4-yl)benzo[d]thiazol-2-yl)acetamide], for which the “μ and σ1 dual binding” value was “++”.

In the case of `CC(C)S(=O)(=O)Nc1cccc(C2CCN(Cc3cn(Cc4ccccn4)nn3)CC2)c1` [Example 81, N-(3-(1-((1-(pyridin-2-ylmethyl)-1H-1,2,3-triazol-4-yl)methyl)piperidin-4-yl)phenyl)propane-2-sulfonamide], the “μ and σ1 dual binding” value is on record as “++”.

Staying with this assay, now noted: transfected HEK-293 membranes (σ1), transfected CHO-K1 cell membranes (μ).
For the compound `Oc1cccc(C2CCN(Cc3cn(Cc4ccncc4)nn3)CC2)c1` [Example 54, 3-(1-((1-(pyridin-4-ylmethyl)-1H-1,2,3-triazol-4-yl)methyl)piperidin-4-yl)phenol], the Ki range for both μ and σ1 (dual-binding class) is less than 0.5 µM.

Take `Oc1cccc(C2CCN(Cc3cn(Cc4ccccn4)nn3)CC2)c1` [Example 55, 3-(1-((1-(pyridin-2-ylmethyl)-1H-1,2,3-triazol-4-yl)methyl)piperidin-4-yl)phenol]: the Ki range for both μ and σ1 (dual-binding class) was less than 0.5 µM.

For the compound `CCNC(=O)Nc1cccc(C2CCN(Cc3cn(-c4ccccc4)nn3)CC2)c1` [Example 56, 1-ethyl-3-(3-(1-((1-phenyl-1H-1,2,3-triazol-4-yl)methyl)piperidin-4-yl)phenyl)urea], the Ki range for both μ and σ1 (dual-binding class) is less than 0.5 µM.

Regarding `CS(=O)(=O)Nc1cccc(C2CCN(Cc3cn(Cc4ccc(C(F)(F)F)cc4)nn3)CC2)c1` [Example 57, N-(3-(1-((1-(4-(trifluoromethyl)benzyl)-1H-1,2,3-triazol-4-yl)methyl)piperidin-4-yl)phenyl)methanesulfonamide], the Ki range for both μ and σ1 (dual-binding class) is less than 0.5 µM.

Consider `Oc1cccc(C2CCN(Cc3cn(-c4ccccc4O)nn3)CC2)c1` [Example 58, 2-(4-((4-(3-hydroxyphenyl)piperidin-1-yl)methyl)-1H-1,2,3-triazol-1-yl)phenol], for which the Ki range for both μ and σ1 (dual-binding class) was less than 0.5 µM.

With `Oc1cccc(C2CCN(Cc3cn(-c4ccc(C(F)(F)F)nc4)nn3)CC2)c1` [Example 60, 3-(1-((1-(6-(trifluoromethyl)pyridin-3-yl)-1H-1,2,3-triazol-4-yl)methyl)piperidin-4-yl)phenol], the Ki range for both μ and σ1 (dual-binding class) was less than 0.1 µM.

For the compound `CO[C@@H]1Cc2ccccc2[C@H]1n1cc(CN2CCC(c3cccc(O)c3)CC2)nn1` [Example 61, 3-(1-((1-((1R,2R)-2-methoxy-2,3-dihydro-1H-inden-1-yl)-1H-1,2,3-triazol-4-yl)methyl)piperidin-4-yl)phenol], the Ki range for both μ and σ1 (dual-binding class) is less than 0.1 µM.

For `CS(=O)(=O)Nc1cccc(C2CCN(Cc3cn(-c4ccccc4)nn3)CC2)c1` [Example 62, N-(3-(1-((1-phenyl-1H-1,2,3-triazol-4-yl)methyl)piperidin-4-yl)phenyl)methanesulfonamide], the Ki range for both μ and σ1 (dual-binding class) is less than 0.1 µM.

On to `Oc1cccc(C2CCN(Cc3cn(Cc4cccc(F)c4)nn3)CC2)c1` [Example 63, 3-(1-((1-(3-fluorobenzyl)-1H-1,2,3-triazol-4-yl)methyl)piperidin-4-yl)phenol], for which the Ki range for both μ and σ1 (dual-binding class) is less than 0.1 µM.

Turning to `Oc1cccc(C2CCN(Cc3cn(C4CCC(F)(F)CC4)nn3)CC2)c1` [Example 64, 3-(1-((1-(4,4-difluorocyclohexyl)-1H-1,2,3-triazol-4-yl)methyl)piperidin-4-yl)phenol], the Ki range for both μ and σ1 (dual-binding class) was less than 0.1 µM.

As to `Oc1cccc(C2CCN(Cc3cn([C@H]4c5ccccc5C[C@@H]4O)nn3)CC2)c1` [Example 65, (1S,2S)-1-(4-((4-(3-hydroxyphenyl)piperidin-1-yl)methyl)-1H-1,2,3-triazol-1-yl)-2,3-dihydro-1H-inden-2-ol], the Ki range for both μ and σ1 (dual-binding class) is less than 0.5 µM.

Regarding `Oc1cccc(C2CCN(Cc3cn([C@@H]4CCCC[C@H]4O)nn3)CC2)c1` [Example 66, 3-(1-((1-((1R,2R)-2-hydroxycyclohexyl)-1H-1,2,3-triazol-4-yl)methyl)piperidin-4-yl)phenol], the Ki range for both μ and σ1 (dual-binding class) was less than 0.5 µM.

For `OCC(c1ccccc1)n1cc(CN2CCC(c3cccc(O)c3)CC2)nn1` (stereo not shown) [Example 67, 3-(1-((1-(2-hydroxy-1-phenylethyl)-1H-1,2,3-triazol-4-yl)methyl)piperidin-4-yl)phenol], the Ki range for both μ and σ1 (dual-binding class) was less than 0.5 µM.

Consider `Oc1cccc(C2CCN(Cc3cn([C@@H]4Cc5ccccc5[C@@H]4F)nn3)CC2)c1` [Example 71, 3-(1-((1-((1S,2R)-1-fluoro-2,3-dihydro-1H-inden-2-yl)-1H-1,2,3-triazol-4-yl)methyl)piperidin-4-yl)phenol], for which the Ki range for both μ and σ1 (dual-binding class) is less than 0.1 µM.

Consider `Oc1cccc(C2CCN(Cc3cn([C@@H]4Cc5ccccc5[C@H]4F)nn3)CC2)c1` [Example 72, 3-(1-((1-((1R,2R)-1-fluoro-2,3-dihydro-1H-inden-2-yl)-1H-1,2,3-triazol-4-yl)methyl)piperidin-4-yl)phenol], for which the Ki range for both μ and σ1 (dual-binding class) is less than 0.1 µM.

On to `CC(c1ccccn1)n1cc(CN2CCC(c3cccc(O)c3)CC2)nn1` (stereo not shown) [Example 75, 3-(1-((1-(1-(pyridin-2-yl)ethyl)-1H-1,2,3-triazol-4-yl)methyl)piperidin-4-yl)phenol], for which the Ki range for both μ and σ1 (dual-binding class) is less than 0.5 µM.

As to `CC(c1ccccc1)n1cc(CN2CCC(c3cccc(NS(C)(=O)=O)c3)CC2)nn1` (stereo not shown) [Example 76, N-(3-(1-((1-(1-phenylethyl)-1H-1,2,3-triazol-4-yl)methyl)piperidin-4-yl)phenyl)methanesulfonamide], the Ki range for both μ and σ1 (dual-binding class) was less than 0.5 µM.

Consider `Oc1cccc(C2CCN(Cc3cn([C@@H]4c5ccccc5C[C@H]4O)nn3)CC2)c1` [Example 78, (1R,2R)-1-(4-((4-(3-hydroxyphenyl)piperidin-1-yl)methyl)-1H-1,2,3-triazol-1-yl)-2,3-dihydro-1H-inden-2-ol], for which the Ki range for both μ and σ1 (dual-binding class) is less than 0.5 µM.

For the compound `CC(C)S(=O)(=O)Nc1cccc(C2CCN(Cc3cn(Cc4ccccc4)nn3)CC2)c1` [Example 79, N-(3-(1-((1-benzyl-1H-1,2,3-triazol-4-yl)methyl)piperidin-4-yl)phenyl)propane-2-sulfonamide], the Ki range for both μ and σ1 (dual-binding class) is less than 0.5 µM.

With `Oc1cccc(C2CCN(Cc3cn([C@H]4CC[C@@H](C(F)(F)F)CC4)nn3)CC2)c1` [Example 82, 3-(1-((1-((1s,4s)-4-(trifluoromethyl)cyclohexyl)-1H-1,2,3-triazol-4-yl)methyl)piperidin-4-yl)phenol], the Ki range for both μ and σ1 (dual-binding class) is less than 0.1 µM.

Regarding `Oc1cccc(C2CCN(Cc3cn([C@H]4CC[C@H](C(F)(F)F)CC4)nn3)CC2)c1` [Example 83, 3-(1-((1-((1r,4r)-4-(trifluoromethyl)cyclohexyl)-1H-1,2,3-triazol-4-yl)methyl)piperidin-4-yl)phenol], the Ki range for both μ and σ1 (dual-binding class) is less than 0.1 µM.

The values above are taken from patent publication US9981942B2, “Piperidine derivatives having multimodal activity against pain” (LABORATORIOS DEL DR. ESTEVE S.A., priority 2013, dated 2018).
